Data published in US11384381B2, “Reaction accelerating agent” (Kikkoman Corporation, priority 2016, dated 2022).

Key:
Format in all cases: biochemical
[1] = test system: cholesterol oxidase (CHO-CE); test: Acceleration of cholesterol detection reaction with small amount of cholesterol oxidase (Example 13); conditions: 0.04% (w/v) compound, 2.31 U/ml CHO-CE; for effect of accelerating cholesterol detection reaction: versus not added; for Degree of progression of reaction (%) after 7.5 minutes / Degree of progression of reaction (%) after 10 minutes: cholesterol detection reaction, ΔA/ΔA100%; for Degree of progression of reaction (%) after 7.5 minutes: 2.5 minutes after addition of second reagent, not added: 65; for Degree of progression of reaction (%) after 10 minutes: 5 minutes after addition of second reagent, not added: 88
Description: Next, in this Example, the degree of acceleration of cholesterol detection reaction by the compound of the present invention was determined using a small amount of cholesterol oxidase.
A reagent for cholesterol measurement having the following composition was prepared, and the measurement of cholesterol was carried out using Bio Majesty JCA-BM […] (manufactured by JEOL Ltd.).
(§1) 32 μM cholesterol (manufactured by Wako Pure Chemical Industries, Ltd.)
(§2) 5.0% (v/v) Triton X-100 (manufactured by Wako Pure Chemical Industries, Ltd.)
(§3) 4.0% (w/v) sodium cholate (manufactured by Wako Pure Chemical Industries, Ltd.)
(§4) 30 mM MOPS-NaOH buffer solution, pH 7.0
(§5) 10 U/ml peroxidase PEO-301 (Toyobo Co., Ltd.)
(§6) 0.023 mM 10-(carboxymethylaminocarbonyl)-3,7-bis(dimethylamino)phenothiazine sodium (DA-67, manufactured by Wako Pure Chemical Industries, Ltd.)
(§7) 0.04% (w/v) of the compound of Comparative Example 2, any one compound of the present invention, or compound-free (Comparative Example 1) ion-exchange water as shown in Table 1
(§8) 10 mM MOPS-NaOH buffer solution, pH 7.0
2.31 U/ml CHO-CE (manufactured by Kikkoman Biochemifa Company)
(§9) 8 μl of the sample was added to 96 μl of the first reagent-E, and the mixture was incubated at 37° C. for 5 minutes. Then, 24 μl of the second reagent-J was added thereto, and the quantitative reaction of hydrogen peroxide resulting from the oxidation of cholesterol was allowed to progress at 37° C. for 5 minutes. The absorbance (A694 and A751) of the reaction solution for light at wavelengths of 694 nm and 751 nm was measured over time for 10 minutes after the mixing of the sample with the first reagent-E to determine the value of subtraction of A751 from A694, i.e., the value A694/751. Subsequently, ΔA was calculated by subtracting, from A694/751, the value of (104/128) times A694/751 4.8 minutes after the mixing of the sample with the first reagent-E. Incidentally, 5 minutes after the mixing of the sample with the first reagent-E represents the time immediately before the addition of the second reagent-J.
Next, ΔA calculated in this Example was divided by ΔA100% defined in Example 12 to calculate the degree of progression of cholesterol detection reaction. The degree of progression of cholesterol detection reaction 7.5 and 10 minutes after the mixing of the sample with the first reagent-E (in other words, 2.5 and 5 minutes after the addition of the second reagent-J) is shown in Table 10.

CFP-DH4 (A1cOX) = test: Acceleration of HbA1c detection reaction with small amount of A1cOX (Example 5); conditions: 0.04% (w/v) compound, 1.1 mg/ml CFP-DH4; for effect of accelerating the HbA1c detection reaction: versus not added; for Degree of progression of reaction (%) after 7.5 minutes / Degree of progression of reaction (%) after 10 minutes: HbA1c detection reaction, ΔA/ΔA100%; for Degree of progression of reaction (%) after 7.5 minutes: 2.5 minutes after addition of second reagent, not added: 51; for Degree of progression of reaction (%) after 10 minutes: 5 minutes after addition of second reagent, not added: 73
Description: Next, in this Example, the degree of acceleration of HbA1c detection reaction by the compound of the present invention was determined using a small amount of A1cOX.
A reagent for HbA1c measurement having the following composition was prepared, and the measurement of HbA1c was carried out using Bio Majesty JCA-BM1650 (manufactured by JEOL Ltd.).
Blood cells (10.4% HbA1c (NGSP value))
30 mM MOPS-NaOH buffer solution, pH 6.5
0.2% (w/v) n-dodecyl-3-D-maltoside (manufactured by Dojindo Laboratories)
as §5, §6
0.04% (w/v) of the compound of Comparative Example 2, any one compound of the present invention, or compound-free (Comparative Example 1) ion-exchange water as shown in Table 2
10 mM MOPS-NaOH buffer solution, pH 6.5
1.1 mg/ml CFP-DH4 (A cOX)
8 μl of the sample diluted 51-fold with ion-exchange water was added to 96 μl of the first reagent, and the mixture was incubated at 37° C. for 5 minutes. Then, 24 μl of the second reagent-B was added thereto, and the quantitative reaction of hydrogen peroxide resulting from the oxidation of the β-chain amino terminus of HbA1c was allowed to progress at 37° C. for 5 minutes. The absorbance ([…] and A751) of the reaction solution for light at wavelengths of 694 nm and 751 nm was measured over time for 10 minutes after the mixing of the diluted sample with the first reagent to determine the value of subtraction of A751 from A694, i.e., the value A694/751. Subsequently, ΔA was calculated by subtracting, from A694/751, the value of (104/128) times A694/751 4.8 minutes after the mixing of the diluted sample with the first reagent. Incidentally, […] after the mixing of the diluted sample with the first reagent represents the time immediately before the addition of the second reagent-B.
Next, ΔA calculated in this Example was divided by ΔA100% defined in Example 4 to calculate the degree of progression of HbA1c detection reaction. The degree of progression of HbA1c detection reaction 7.5 and 10 minutes after the mixing of the diluted sample with the first reagent (in other words, 2.5 and 5 minutes after the addition of the second reagent-B) is shown in Table 2.

[2] = test system: cholesterol oxidase (CHO-CE); test: Cholesterol detection reaction completed with excess cholesterol oxidase (Example 12); conditions: 0.04% (w/v) compound, 11.6 U/ml CHO-CE (excess), 32 μM cholesterol, pH 7.0, 37° C.; for ΔA9 min: change in A694-A751 9 minutes after mixing; for ΔA10 min: change in A694-A751 10 minutes after mixing, defined as ΔA100%
Description: In this Example the amount of change in absorbance is determined when the detection reaction for the substrate cholesterol was completed using an excess amount of cholesterol oxidase (CHO-CE), which is an oxidase.
A reagent for cholesterol measurement having the following composition was prepared, and the measurement of cholesterol using cholesterol oxidase was carried out using Bio Majesty JCA-BM 1650 (manufactured by JEOL Ltd.).
as §1, §2, §3, §4, §5, §6, §7, §8
11.6 U/ml CHO-CE (manufactured by Kikkoman Biochemifa Company)
as §9, with “second reagent-I” for “second reagent-J”, “Incidentally, 4.8” for “Incidentally, 5”, “second reagent-I. ΔA 9 minutes and 10 minutes after the mixing of the diluted sample with the first reagent-E (ΔA9min and ΔA10min) are shown in Table 9.” for “second reagent-J.”
In other words, it can be recognized that the quantitative reaction of cholesterol, i.e., the quantitative reaction of hydrogen peroxide resulting from the oxidation of cholesterol, was completed in 10 minutes after the mixing of the diluted sample with the first reagent-E. Accordingly, in Examples 12 and 13, ΔA10min in each Comparative Example or the present invention was defined as ΔA when 100% of the quantitative reaction of cholesterol progressed under each condition (ΔA100%).

| Molecule | effect of accelerating cholesterol detection reaction [1] | Degree of progression of reaction (%) after 7.5 minutes [1] | Degree of progression of reaction (%) after 10 minutes [1] | effect of accelerating the HbA1c detection reaction (CFP-DH4 (A1cOX)) | Degree of progression of reaction (%) after 7.5 minutes (CFP-DH4 (A1cOX)) | Degree of progression of reaction (%) after 10 minutes (CFP-DH4 (A1cOX)) | ΔA9 min [2] | ΔA10 min [2] |
| --- | --- | --- | --- | --- | --- | --- | --- | --- |
| Cc1nn(-c2cc(S(=O)(=O)[O-])ccc2Cl)c(O)c1N=Nc1ccccc1.[Na+] [Acid Yellow 34] | effect of accelerating cholesterol detection reaction | 72% | 92% | effect of accelerating the HbA1c detection reaction | 75% | 95% | 0.033 | 0.033 |
| Acid Red 151 | effect of accelerating cholesterol detection reaction | 74% | 94% | effect of accelerating the HbA1c detection reaction | 55% | 80% | 0.036 | 0.036 |
| O=C([O-])c1cc(N=Nc2cccc([N+](=O)[O-])c2)ccc1O.[Na+] [Alizarin Yellow GG] | effect of accelerating cholesterol detection reaction | 73% | 93% | effect of accelerating the HbA1c detection reaction | 76% | 91% | 0.039 | 0.039 |
| O=S(=O)([O-])c1cccc(N=Nc2ccc(Nc3ccccc3)cc2)c1.[Na+] [Acid Yellow 36] | effect of accelerating cholesterol detection reaction | 73% | 92% | effect of accelerating the HbA1c detection reaction | 53% | 81% | 0.033 | 0.033 |
| COc1cc(N=Nc2cccc(S(=O)(=O)[O-])c2)ccc1NC(=O)Nc1ccc(N=Nc2ccc(O)c(C(=O)[O-])c2)cc1.[Na+].[Na+] [Direct Yellow 44] |  |  |  | effect of accelerating the HbA1c detection reaction | 77% | 96% |  |  |
| O=C(O)c1cc(N=Nc2ccc3cc(S(=O)(=O)O)ccc3c2)ccc1O.[Na] [Chrome Yellow] | effect of accelerating cholesterol detection reaction | 67% | 91% | effect of accelerating the HbA1c detection reaction | 53% | 77% | 0.071 | 0.072 |
| COc1cc(N=Nc2ccc(N)cc2)c(C)cc1N [Disperse Diazo Black 3BF] | effect of accelerating cholesterol detection reaction | 66% | 97% |  |  |  | 0.028 | 0.032 |
| O=C([O-])c1cc(N=Nc2ccc([N+](=O)[O-])cc2)ccc1O.[Na+] [Mordant Orange 1] | effect of accelerating cholesterol detection reaction | 74% | 94% | effect of accelerating the HbA1c detection reaction | 80% | 94% | 0.041 | 0.041 |
| Xylene Fast Yellow 2G |  |  |  | effect of accelerating the HbA1c detection reaction | 58% | 83% |  |  |
